Source: US20210315839A1, “USE OF SPERMIDINE FOR THE ENHANCEMENT OF MITOCHONDRIAL RESPIRATION” (TLL THE LONGEVITY LABS GMBH, priority 2016, published 2021)

Tested on: mitochondrial Complex I
Assay: High resolution respirometry of cardiac mitochondria isolated from spermidine supplemented aged mice (Complex I activity)
Assay type: in vivo, C57BL/6 mice
Settings: for activity of mitochondrial Complex I (respiratory competence of cardiac mitochondria through respiratory chain complex I, OXPHOS stage): isolated cardiac mitochondria of 24 month old mice after 6 months of spermidine supplementation (24M+S) vs aged control (24M), complex I supplying substrates, 37° C., N-5/5
Description: Mitochondria isolated from cardyomyocytes of spermidine or sham treated 24 month old and 4 month old (young reference) C57B/63 wildtype mice were used for measurement of mitochondrial respiratory activity.
Wild type C57BL/6 mice were purchased from Janvier Labs, France (C57BL6/J:Rj males). Supplementation of spermidine was conducted late in life (starting at age of 18 months). After 6 months of treatment, isolation of cardiac mitochondria and high resolution respirometry was performed, using an isolation buffer containing 0.2% BSA and 5 mg/ml bacterial protease (Sigma-Aldrich, P8038). Hearts were quickly excised immediately after final blood collection under isoflurane anaesthesia and processed.
Optical density at 600 nm (0D600) of the final mitochondrial suspension (isolation buffer including BSA, but excluding protease) was determined by serial dilutions in a TECAN GeniusPro plate reader and served as an estimate of mitochondrial mass used for normalization. Oxygen consumption was assayed at 37° C. with an Oxygraph 2 k high resolution respirometer (Oroboros Instruments, Austria) according to the manufacturer's recommendations. OD600 equivalents of isolated myocardial mitochondria corresponding to 10-20 ug mitochondrial protein were diluted in 2 ml equilibrated measurement medium (100 mM sucrose, 20 mM K+−TES (pH=7.2), 50 mM KCl, 2 mM MgCl2, 1 mM EDTA, 4 mM KH2PO4, 3 mM malate and 0.1% (v/v) BSA) within a closed and calibrated system with constant stirring. […]
In FIG. 1A representative oxygraph recordings and (B) quantification of mitochondrial respiration (only OXPHOS stage shown) from isolated cardiac mitochondria incubated with complex I supplying substrates […] and pyruvate (Gly/Pyr) are shown. ROX, Residual respiration (State 1) in the absence of reduced substrate and ADP; LEAK, Respiration compensating for proton leak in the absence of ADP but presence of reduced substrate; OXPHOS, ADP stimulated respiration of coupled mitochondria (quantification shown in FIG. 1B); OXPHOS+CytC, Oxphos after addition of cytochrome C. […]

For `NCCCCNCCCN` [Spermidine, N-(3-Aminopropyl)-1,4-diaminobutane], the “age-induced decline in mitochondrial respiratory function” value (aged spermidine supplemented mice vs aged control and young reference mice, cardiac mitochondria) was “reversed”, the “activity of mitochondrial Complex I (respiratory competence of cardiac mitochondria through respiratory chain complex I, OXPHOS stage)” value was “increases the activity of mitochondrial Complex I” and the “activity of mitochondrial Complex I (respiratory competence of cardiac mitochondria through respiratory chain complex I, OXPHOS stage)” value (listed as spermidine) was “increased”.
